{"source": "patent US9248162B2", "about": "“Factor H for treatment of rheumatoid arthritis” (Baxter International Inc., priority 2013, dated 2016)", "key": {"[1]": {"tested_on": "collagen antibody-induced arthritis", "test": "Mouse CAIA: ankle histology scores (H & E)", "type": "in vivo, Balb C mice", "design": "key: 0: normal; 1: minimal; 2: mild; 3: moderate; 4: marked; 5: severe", "settings": "individual animal", "procedure": "(§1) Balb C mice (n=10 per cohort) were used to determine the efficacy of Factor H (FH) during […]. The mice were treated with ArthritoMAb (anti-collagen) antibody cocktail (2 mg, i.v.) on day 1, followed 7 days later with an injection of LPS (50 μg, i.p.). On day 8, hind paw volumes were measured for each animal and distributed to various treatment groups.\n(§2) Dosing with the different agents was started on day 8 as described in Table 3.\n(§3) Hind paw volumes were measured on day 8, 11, 12, 13, 15, 19 and 22 (endpoint). The age at start date was 7 to 9 weeks. Body weights were measured bi-weekly to the endpoint (Table 4). At the endpoint, tissue samples were processed for histology and submitted to a pathologist for independent analysis. Sampling 1 was performed at the endpoint. The hind limbs were preserved in 10% formalin. Sampling 2 was performed at the endpoint for group 4 animals. Blood was collected by terminal cardiac puncture. The blood was processed for anti-coagulant. The kidneys were additionally preserved in formalin and followed with 70% EtOH. Samples were scored for inflammation, pannus (granulation tissue), cartilage damage, bone resorption and exostosis (Table 5)."}, "[2]": {"tested_on": "collagen antibody-induced arthritis", "test": "Mouse CAIA: ankle histology scores (H & E)", "type": "in vivo, Balb C mice", "design": "key: 0: normal; 1: minimal infiltration of pannus in cartilage and subchondral bone; 2: mild infiltration; 3: moderate infiltration; 4: marked infiltration; 5: severe infiltration", "settings": "individual animal", "procedure": "as §1, §2, §3"}, "[3]": {"tested_on": "collagen antibody-induced arthritis", "test": "Mouse CAIA: ankle histology scores (H & E)", "type": "in vivo, Balb C mice", "design": "key: 0: normal; 1: minimal infiltration of inflammatory cells in periarticular tissue; 2: mild infiltration; 3: moderate infiltration with moderate edema; 4: marked infiltration with marked edema; 5: severe infiltration with severe edema", "settings": "individual animal", "procedure": "as §1, §2, §3"}, "[4]": {"test": "Mouse CAIA: body weight and tolerability", "type": "in vivo, Balb C mice", "procedure": "as §1, §2, §3"}, "[5]": {"tested_on": "collagen antibody-induced arthritis", "test": "Mouse CAIA: ankle histology scores (H & E)", "type": "in vivo, Balb C mice", "design": "key: 0: normal; 1: minimal to mild loss of staining density with no obvious chondrocyte loss or collagen disruption; 2: mild loss of staining density with focal mild (superficial) chondrocyte loss and/or collagen disruption; 3: moderate loss of staining density with multifocal moderate (depth to middle zone) chondrocyte loss and/or collagen disruption; 4: marked loss of staining density with multifocal marked (depth to deep zone) chondrocyte loss and/or collagen disruption; 5: severe diffuse loss of staining density with multifocal severe (depth to tide mark) chondrocyte loss and/or collagen disruption", "settings": "individual animal", "procedure": "as §1, §2, §3"}, "[6]": {"tested_on": "pre-sensitized kidney transplants", "test": "Early phase kidney allograft histology, HE staining (Example 3)", "type": "in vivo, C57BL/6 (B6) mice", "settings": "result in words; POD5 (FIG. 6B)", "procedure": "The effect of CFH with or without Adrenomedullin (AM) on kidney graft function, antibody response, and histology was determined following the early phase of transplantation (POD3 and POD5). The pre-sensitized kidney transplants were treated with CFH (8 mg, i.p.) on day −1, day 0 and then every other day. To test whether AM provides additional benefits to renal graft function, an additional group of transplants were treated with a single dose infusion (200 μl, i.v.) of AM (˜100 ug/kg) mixed with CFH (˜1 mg/kg) immediately following the transplant surgery (POD0), in addition to the i.p. injection of CFH (day-1, 0, and every other day).\nAll mice were sacrificed on POD3 and 5, respectively (˜5/ea). Untreated transplants sacrificed at the same endpoints were used as controls. Graft tissues were harvested for histology and immune-histochemistry (IHC). The experimental groups were as follows: 1) C3H to B6 txs+pre-sensitization+control; 2) C3H to B6 txs+pre-sensitization+CFH (i.p.); and 3) C3H to B6 txs+pre-sensitization+CFH (i.p.)+AM/CFH infusion (at time of transplant)."}, "[7]": {"tested_on": "pre-sensitized kidney transplants", "test": "Early phase (POD3, POD5) kidney graft function, CFH with or without Adrenomedullin (Example 3)", "type": "in vivo, C57BL/6 (B6) mice", "settings": "result in words; POD5, vs. untreated controls (FIG. 6A)", "procedure": "The effect of CFH with or without Adrenomedullin (AM) on kidney graft function, antibody response, and histology was determined following the early phase of transplantation (POD3 and POD5). […] To test whether AM provides additional benefits to renal graft function, an additional group of transplants were treated with a single dose infusion (200 μl, i.v.) of AM (˜100 ug/kg) mixed with CFH (˜1 mg/kg) immediately following the transplant surgery (POD0), in addition to the i.p. injection of CFH (day-1, 0, and every other day). CFH is a serum-binding protein for AM. It has been shown that AM influences the complement regulatory function of Factor H by enhancing the cleavage of C3b via Factor I. […] FH concentration will be 112.5 μg/ml). Transfer 220 μl aliquots to sterile tubes and freeze at −70 until ready for use. All mice were sacrificed on POD3 and 5, respectively (˜5/ea). Untreated transplants sacrificed at the same endpoints were used as controls. Graft tissues were harvested for histology and immune-histochemistry (IHC). The experimental groups were as follows: 1) C3H to B6 txs+pre-sensitization+control; 2) C3H to B6 txs+pre-sensitization+CFH (i.p.); and 3) C3H to B6 txs+pre-sensitization+CFH (i.p.)+AM/CFH infusion (at time of transplant)."}, "[8]": {"settings": "score 0-5, endpoint day 22, listed as Group 3"}, "[9]": {"settings": "score 0-5, endpoint day 22, listed as Group 4"}}, "note": "Several values for one entry are separate records, joined by “and”; a condition that tells them apart may be missing. Equal values may be shown once.", "data": [{"substance": "Etanercept", "values": [{"measurement": "Score From H & E: Bone Resorption", "setting": "[1]; [8]", "result": "1 and 3 (3×)"}, {"measurement": "Score From H & E: Periosteal/Exostotic Changes", "setting": "[1]; [8]", "result": "4 (2×) and 3 (2×)"}, {"measurement": "Score From H & E: Pannus", "setting": "[2]; [8]", "result": 4}, {"measurement": "Score From H & E: Bone Resorption", "setting": "[3]; [8]", "result": 0}, {"measurement": "Score From H & E: Cartilage Damage", "setting": "[3]; [8]", "result": 0}, {"measurement": "Score From H & E: Pannus", "setting": "[3]; [8]", "result": "2 (3×) and 0 (5×)"}, {"measurement": "Score From H & E: Periosteal/Exostotic Changes", "setting": "[3]; [8]", "result": 0}, {"measurement": "Mean Body Weigh at Nadir", "setting": "[4]; mouse, in vivo", "result": "−5.7", "unit": "%"}, {"measurement": "Score From H & E: Cartilage Damage", "setting": "[5]; [8]", "result": "1 (3×) and 2 (2×)"}]}, {"substance": "Factor H", "values": [{"measurement": "Score From H & E: Bone Resorption", "setting": "[1]; [9]", "result": "1 and 2"}, {"measurement": "Score From H & E: Periosteal/Exostotic Changes", "setting": "[1]; [9]", "result": 3}, {"measurement": "Score From H & E: Pannus", "setting": "[2]; [9]", "result": "1 (4×) and 3"}, {"measurement": "kidney graft morphology (HE staining)", "setting": "[6]", "result": "improved morphology with less tubular necrosis on POD5"}, {"measurement": "Score From H & E: Bone Resorption", "setting": "[3]; [9]", "result": 0}, {"measurement": "Score From H & E: Cartilage Damage", "setting": "[3]; [9]", "result": 0}, {"measurement": "Score From H & E: Pannus", "setting": "[3]; [9]", "result": "2 and 0 (4×)"}, {"measurement": "Score From H & E: Periosteal/Exostotic Changes", "setting": "[3]; [9]", "result": 0}, {"measurement": "Mean Body Weigh at Nadir", "setting": "[4]; mouse, in vivo", "result": "−7.4", "unit": "%"}, {"measurement": "body weights vs. vehicle controls", "setting": "[4]; mouse, in vivo", "result": "comparable to vehicle controls"}, {"measurement": "treatment-related deaths", "setting": "[4]; result in words, FH 440 mg/kg i.p. qodx7", "result": "no treatment-related deaths"}, {"measurement": "Score From H & E: Cartilage Damage", "setting": "[5]; [9]", "result": "1 (4×) and 2"}, {"measurement": "renal function, Cr level", "setting": "[7]", "result": "trend of improved renal function"}]}]}
